Laboratory results from patent publication US20220152174A1, “Cancer Antigen Peptide” (National University Corporation Asahikawa Medical University, priority 2018, published 2022).

Legend:
CD4-positive T-cells = assay: IFN-γ ELISPOT after peptide vaccination of HLA transgenic mice; format: in vivo, mouse; settings: A2.DR1-Tg mice vaccinated with partial peptides, stimulation 3 μg/mL, 24 hours
Description: HLA-A*02:01/DRB1*01:01 transgenic mice (A2.DR1-Tg mice, […]; Pasteur Institute, France) were intradermally injected with SYCP3-A peptide (synthesized by GenScript) dissolved in 100 μL of PBS using Myjector on Days […]. The mice were euthanized by intraperitoneally administering 200 μL of 500 μg/mL pentobarbital on Day 15. After laparotomy, tumor-draining lymph nodes (dLNs) and spleens were collected and lymphocytes and splenocytes, respectively, were isolated.
The lymphocytes (3×10^5 cells) and the splenocytes (5×10^5 cells) were added to ELISPOT plates (EMD Millipore, MAHAS4510), and the cells were co-cultured in the presence of a control peptide (a peptide of 15 amino acid residues having a sequence not included in SYCP3) or SYCP3-A peptide selected in Test 4 (3 μg/mL) in the complete medium at 150 μL/well for […]. In order to detect the cells producing IFN-γ specifically to SYCP3-A peptide, the ELISPOT assay was performed using a mouse IFN-γ ELISpot BASIC (ALP) kit (MABTECH 3321-2A). The procedure was in accordance with the description of the attached package insert. BCIP-NBT-plus substrate for ELISpot (MABTECH 3650-10) was used as a chromogenic substrate, and PBS-T was used for washing at each step. In addition, in order to confirm that the reaction is produced by CD4-positive T-cells, an anti-mouse CD4 antibody (BioLegend 100435) or an anti-mouse CD8 antibody (BioLegend 100735) was added to some cultures at the final concentration of 5 μg/mL.
As described above, A2.DR1-Tg mice were vaccinated with these partial peptides, dLNs and spleens were collected from each mouse, lymphocytes and splenocytes were isolated, the cells were stimulated with each partial peptide (3 μg/mL) for 24 hours, and the T-cell responses were determined by ELISPOT. CD4-positive T-cells responded to the partial peptides T2, T3, and T4.

[1] = system: SYCP3-A-specific Th cells; assay: IFN-γ ELISA of SYCP3-A peptide-specific Th cells co-cultured with PBMCs; format: cell-based, human; settings: for IFN-γ production of SYCP3-A peptide-specific Th cells: peptide 3 μg/mL, Th cells plus PBMCs of same donor
Description: PBMCs were collected from peripheral blood samples of healthy donors by a density gradient separation method using Lymphoprep (Alere Technologies AS 1114547). CD14 positive cells were separated from PBMCs using a magnetic cell separation system (Miltenyi 130-050-201). Differentiation into dendritic cells (DCs) was induced by culturing the cells in the presence of 50 ng/mL GM-CSF (peprotech AF-300-03) and 50 ng/mL IL-4 (peprotech AF-200-04) with 3 mL of a culture medium for human cells in 6-well culture plates (Falcon 353046) for 7 days. The culture medium was AIM-V medium (ThermoFisher SCIENTIFIC 0870112DK) supplemented with 3% of human AB serum (Innovative RESEARCH IPLA-SERAB) inactivated at 56° C. for 30 minutes. Similarly, CD4-positive T-cells were isolated from PBMCs (Miltenyi 130-045-101), and 1×10^5 CD4-positive T-cells were co-cultured with 5×10^4 DCs in the presence of SYCP3-A or SPESP1-B peptide (3 μg/mL) in 96-well flat bottom culture plates (Falcon 353072) at the volume of 200 μL. After 7 days, in order to stimulate the CD4-positive T-cells with the peptide, 100 μL of the culture supernatant was removed from each well, and then SYCP3-A or SPESP1-B peptide (3 μg/mL) and PBMCs (2×10^5) inactivated by gamma-irradiation (40 Gy) were added at the volume of 100 μL. After 2 days, 50 μL of the culture supernatant was removed, and 50 μL of IL-2 (Imunace35, Shionogi) was added at the final concentration of 10 U/mL. For continuous proliferation of the activated CD4-positive T-cells, the cells (1×10^6 cells) were stimulated with SYCP3-A or SPESP1-B peptide and the inactivated PBMCs (1×10^6 cells) every other week and used for the experiments described below.
In order to study the HLA-restriction of the CD4-positive T-cells, an anti-DR antibody (BioLegend 307612) or an anti-HLA-class I antibody (BioLegend 311412) as a control was added to some cultures at the final concentration of 5 μg/mL.

HLA-DR53 [2] = assay: HLA type restriction of SYCP3-A with L-DR mouse fibroblast cells; format: cell-based, human; settings: SYCP3-A 3 μg/mL
Description: (§2) Furthermore, in order to identify the HLA type to which the peptide is restricted, the CD4-positive T-cells (5×10^4 cells) and 3×10^4 cells of a mouse fibroblast cell line having HLA-DR4, DR8, DR9, or DR53 gene (L-DR4, L-DR8, L-DR9, or L-DR53) were co-cultured in the presence of SYCP3-A peptide (3 μg/mL) in 96-well flat bottom culture plates using 200 μL of the culture medium for human cells, and after 24 to 48 hours the IFN-γ concentrations in the culture supernatants were determined as described above.

HLA-DR53 [3] = biological target: T1, HLA-DR53 (Homo sapiens, UniProt P01903+P13762); assay: as above; format: cell-based; settings: SYCP3-A 3 μg/mL, L-DR53 cells, 24 to 48 hours
T1 construct: expressed in transfected cells; host or cells: mouse fibroblast cell line L-DR53
T1 sequence (P13762 30-266): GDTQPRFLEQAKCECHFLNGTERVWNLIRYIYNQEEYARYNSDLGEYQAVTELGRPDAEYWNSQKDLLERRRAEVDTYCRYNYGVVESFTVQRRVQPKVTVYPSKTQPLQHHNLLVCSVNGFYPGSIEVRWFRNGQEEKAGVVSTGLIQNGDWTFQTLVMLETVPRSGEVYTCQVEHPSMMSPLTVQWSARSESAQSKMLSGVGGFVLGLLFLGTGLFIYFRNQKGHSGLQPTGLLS
T1 sequence (P01903 26-254): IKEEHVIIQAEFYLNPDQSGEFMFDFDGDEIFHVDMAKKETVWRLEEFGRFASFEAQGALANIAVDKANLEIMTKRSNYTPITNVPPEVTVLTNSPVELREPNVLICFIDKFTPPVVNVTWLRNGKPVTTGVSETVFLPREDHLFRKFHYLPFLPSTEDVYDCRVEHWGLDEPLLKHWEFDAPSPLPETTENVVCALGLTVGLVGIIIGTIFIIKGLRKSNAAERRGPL
Description: as §2

[4] = system: HLA-DR4, DR8, DR9, DR15, DR53; assay: HLA type restriction of partial DAZL-1 peptides with L-DR cells; format: cell-based, human
DAZL1-specific Th cells = assay: IFN-γ ELISA of DAZL-1 peptide-specific Th cells; format: cell-based, human
Description: (§1) PBMCs were collected from peripheral blood samples of healthy donors by a density gradient separation method using Lymphoprep (Alere Technologies AS 1114547). CD14 positive cells were separated from PBMCs using a magnetic cell separation system (Miltenyi 130-050-201). Differentiation into dendritic cells (DCs) was induced by culturing the cells in the presence of 50 ng/mL GM-CSF (peprotech AF-300-03) and 50 ng/mL IL-4 (peprotech AF-200-04) with 3 mL of a culture medium for human cells in 6-well culture plates (Falcon 353046) for 7 days. The culture medium was AIM-V medium (ThermoFisher SCIENTIFIC 0870112DK) supplemented with 3% of human AB serum (Innovative RESEARCH IPLA-SERAB) inactivated at 56° C. for 30 minutes. Similarly, CD4-positive T-cells were isolated from PBMCs (Miltenyi 130-045-101), and 1×10^5 CD4-positive T-cells were co-cultured with 5×10^4 DCs in the presence of SYCP3-A or SPESP1-B peptide (3 μg/mL) in 96-well flat bottom culture plates (Falcon 353072) at the volume of 200 μL. […]
The IFN-γ concentrations of the culture supernatants were determined in the same manner as in Test 8, except that partial DAZL-1 peptide p11, p12, or p13 was used instead of SYCP3-A peptide. […]

HLA-DR53 [5] = biological target: T1, HLA-DR53; assay: HLA type restriction of SPESP1-B with L-DR53; format: cell-based
Description: The IFN-γ concentrations of the culture supernatants were determined in the same manner as in Test 8, except that SPESP1-B peptide was used instead of SYCP3-A peptide. Two SPESP1-B-specific Th cell clones (HK15 and HK18) were established from one healthy donor. The peptide-specific IFN-γ production was suppressed when the anti-HLA-DR antibody (aDR) was added to the clones.

[6] = system: SPESP1-B-specific Th cells; assay: IFN-γ ELISA of SPESP1-B peptide-specific Th cells; format: cell-based, human
Description: as §1
The IFN-γ concentrations of the culture supernatants were determined in the same manner as in Test 8, except that SPESP1-B peptide was used instead of SYCP3-A peptide. […]

[7] = system: SYCP3, SPESP1, and DAZL1 gene expression in EBC1, Lu65, and HT-29; assay: Gene expression in cancer cell lines cultured with gemcitabine; format: cell-based, human; settings: EBC1, Lu65, HT-29 cultured in the presence of gemcitabine
helper T-cells = assay: IFN-γ ELISA after DAZL-1C vaccination of Balb/c mice; format: in vivo, mouse
Description: Two BALB/cAnNCrlCrlj mice (Balb/c, 10 to 16 weeks old, Charles river) were intradermally injected with 100 μg/50 μL DAZL-1C peptide ([…] (SEQ ID NO: 20): synthesized by GenScript) dissolved in phosphate-buffered saline (PBS, KANTO CHEMICAL CO., INC. 73111) using Myjector (TERUMO SS_05M2913) on Days 0 and 10. The mice were euthanized by intraperitoneally administering 200 μL of 500 μg/mL pentobarbital (nacalai tesque 02095-04) on Day 12. After laparotomy, dLNs and spleens were collected and lymphocytes and splenocytes, respectively, were isolated.
The lymphocytes (3×10^5 cells) and the splenocytes (5×10^5 cells) were added to 96-well flat bottom culture plates (Falcon 353072), and the cells were co-cultured in the presence of a control peptide or DAZL-1C peptide (2.5 μg/mL) in the complete medium at 200 μL/well for 24 hours. In order to detect IFN-γ production specific to DAZL-1C peptide, each 100 μL of the culture supernatants after 24 hours were collected, and the IFN-γ concentrations were determined using an ELISA set (BD Biosciences 551866) in accordance with the description of the attached package insert. In order to confirm that the reaction is produced by CD4-positive T-cells, an anti-mouse CD4 antibody (aCD4; BioLegend 100435) or an anti-mouse CD8 antibody (aCD8; BioLegend 100735) was added to some cultures at the final concentration of 5 μg/mL.

“KILQQSRIVQSQ (listed as Homo sapiens) [T4]” was tested. Which “T-cell response of CD4-positive T-cells to partial peptide by ELISPOT” value (from here on “T-cell response of CD4-positive T-cells”) (CD4-positive T-cells) did it give?
The value was “responded”.

What about the “IFN-γ production of SYCP3-A peptide-specific Th cells” value [1] of the same molecule?
The value was “Increased IFN-γ production”.

With “QQKILQQSRIVQ (listed as Homo sapiens) [T2]” as the molecule, how does the “T-cell response of CD4-positive T-cells” value (CD4-positive T-cells) read?
The value was “responded”.

Which “peptide-specific IFN-γ production with anti-HLA-DR antibody” value ([1]; SYCP3-A 3 μg/mL, aDR 5 μg/mL, Th clones from three healthy donors) does the source give for “QQQKILQQSRIVQSQRLKT (listed as Homo sapiens) [SYCP3-A]” here?
The value was “suppressed”.

And the “reactivity in samples having no DR53 allele” value (HLA-DR53 [2])?
The value was “some reactivity”.

What about the “peptide-specific reaction (IFN-γ) of Th cells to L-DR53 cells” value (HLA-DR53 [3]) of the same molecule?
The value was “strong peptide-specific reactions”.

How did the “reactivity of SYCP3-A peptide-specific Th cells compared with SYCP3-A” value ([1]; modified or substituted peptide, similarly tested) turn out when “QQQKILQQSRVVQSQRLKT (listed as Homo sapiens) [SEQ ID NO: 31, 11th isoleucine residue of SYCP3-A peptide substituted with a valine residue]” was run?
Its value is “not decreased”.

“LGPAIRKQNLCAYHVQPRPL (listed as Homo sapiens) [p13]” was tested. Which “HLA type bound to stimulate Th cells” value [4] did it give?
Its value is “HLA-DR8”.

What about the “IFN-γ production with anti-HLA-DQ antibody” value (DAZL1-specific Th cells) of the same molecule?
The value was “suppressed”.

“DVQKIVESQINFHGKKLKLG (listed as Homo sapiens) [p11]” was tested. Which “HLA type bound to stimulate Th cells” value [4] did it give?
Its value is “HLA-DR4/9/53”.

Which results are given for “QNLNHYIQVLENLVRSVPS (listed as Homo sapiens) [SPESP1-B]”?
HLA type binding and Th cell stimulation (HLA-DR53 [5]): binds to HLA-DR53 and stimulates Th cells; peptide-specific IFN-γ production with anti-HLA-DR antibody ([6]; clones HK15 and HK18, aDR): suppressed; IFN-γ production at low concentration ([6]; peptide 0.0003 μg/mL (serially diluted 0.0003 to 30 μg/mL)): sufficient IFN-γ production

How did the “HLA type bound to stimulate Th cells” value [4] turn out when “INFHGKKLKLGPAIRKQNLC (listed as Homo sapiens) [p12]” was run?
Its value is “HLA-DR15”.

With Nc1ccn([C@@H]2O[C@H](CO)[C@@H](O)C2(F)F)c(=O)n1 [gemcitabine] as the molecule, how does the “gene expression levels of SYCP3, SPESP1, and DAZL1” value [7] read?
The value was “equivalent to those of the controls”.

“QKILQQSRIVQS (listed as Homo sapiens) [T3]” was tested. Which “T-cell response of CD4-positive T-cells” value (CD4-positive T-cells) did it give?
The value was “responded”.

And the “IFN-γ production of SYCP3-A peptide-specific Th cells” value [1]?
The value was “Increased IFN-γ production”.

What does the source list for “DVQKIVESQINFHGKKLKLGPAIRKQNLC (listed as Homo sapiens) [DAZL-1C]”?
ability to activate helper T-cells (peptide-specific IFN-γ production) (helper T-cells; Balb/c mice, 100 μg i.d. Days 0 and 10, restimulation 2.5 μg/mL, 24 hours): activates helper T-cells; IFN-γ production specific to peptide with anti-CD4 antibody (helper T-cells; anti-mouse CD4 antibody 5 μg/mL): inhibited
